Reference: US12194230B2, “Methods, devices and systems for pulmonary delivery of active agents” (priority 2014, dated 2025)
“And” between values parts separate entries of the source, which are not always exact repeats. Identical values can stand only once. Like-named read-outs stand apart in the source and are kept apart here.

Columns and labels:
[1] = PK/PD study: plasma Δ^9-THC levels after single-dose inhalation of Cannabis flos with the metered-dose inhaler
[2] = system: patients suffering from neuropathic pain; experiment: Adverse effects, blood pressure and heart rate after single-dose inhalation (PK/PD study); type: in vivo, human; conditions: for heart rate: baseline 71±12, P=0.873; for mean diastolic blood pressure: baseline 82±9, P=0.410; for mean systolic blood pressure: baseline 133±13, P=0.068; for adverse effects (overall): single inhalation, 8 patients
Protocol: (§1) Pain intensity reduction was assessed as a therapeutic effect by asking participants to indicate the intensity of their current pain on a 100 mm visual analog scale (VAS) between 0 (no pain) and 100 (worst possible pain) at baseline (prior to the inhalation) and at 20 and 90 minutes following the pulmonary delivery of the pharmaceutically active agent from cannabis. Adverse effects, in the form of psychotropic symptoms, were recorded at 5, 15, 30, 60 and 120 minutes post pulmonary delivery, along with those spontaneously reported by the participants. Adverse effects were evaluated according to standardized criteria in terms of severity, frequency, duration and relationship to the study's active agent. Adverse effects were graded using the NIH Division of AIDS table for scoring severity of adult adverse experiences. Blood pressure and pulse rate were also recorded before, during and after the pulmonary delivery.
(§2) Results are reported herein as mean values±1 standard deviation (±SD). For each one of the measured effects (VAS pain intensity, systolic and diastolic blood pressure, heart rate and satisfaction score), the mean and 95% confidence interval (CI) at different time points was plotted. Differences between VAS pain intensity values and satisfaction scores, before and after inhalation, were tested by two-tailed paired Student t-test. Blood pressure and heart rate values were compared among different time points by one-way ANOVA. P-values<0.05 were accepted as significant. All statistical analyses were performed using Minitab Statistical Software, version 16.

[3] = system: patients suffering from chronic neuropathic pain; conditions: cited from earlier work; for reduction of pain intensity: vaporized 10.3 mg total available Δ^9-THC in two sessions
[4] = system: patients suffering from neuropathic pain; experiment: VAS pain intensity after single-dose inhalation (PK/PD study); type: in vivo, human
Protocol: The study was used to further evaluate the pharmacodynamic effect of pulmonary delivery of Δ^9-THC on pain reduction from baseline using a 10 cm visual analog scale (VAS) pain scale (0 being no pain; and 10 being worst possible pain); for monitoring adverse effects, blood pressure and heart rate, and for estimating the degree of satisfaction with the use of the MDI on a 0-10 scale.
as §1, §2

[5] = cited from earlier work; for mean Cmax increase per mg Δ^9-THC: Huestis et al.
[6] = single inhalation, 3.08±0.02 mg total available Δ^9-THC

Q: For CCCCCc1cc(O)c2c(c1)OC(C)(C)[C@@H]1CCC(CO)=C[C@@H]21 [11-OH-THC, 11-hydroxy Δ^9-THC], which “plasma levels of the active metabolite” value ([1]; blood sampling 0-120 minutes after inhalation) is on record?
A: The value was “No measurable plasma levels”.

Q: For CCCCCc1cc(O)c2c(c1)OC(C)(C)[C@@H]1CCC(C)=C[C@@H]21 [Δ^9-THC, Δ9-tetrahydrocannabinol], which heart rate ([2]; 30 minutes post-inhalation) is on record?
A: The heart rate was 72±11 bpm.

Q: What about the “mean diastolic blood pressure” value ([2]; 30 minutes post-inhalation) of the same molecule?
A: The value was 75±10 mm Hg.

Q: What about the “mean systolic blood pressure” value ([2]; 30 minutes post-inhalation) of the same molecule?
A: Its value is 122±10 mm Hg.

Q: What about the heart rate ([2]; 90 minutes post-inhalation) of the same molecule?
A: The heart rate was 69±13 bpm.

Q: What about the “mean diastolic blood pressure” value ([2]; 90 minutes post-inhalation) of the same molecule?
A: Its value is 81±12 mm Hg.

Q: And the “mean systolic blood pressure” value ([2]; 90 minutes post-inhalation)?
A: Its value is 121±11 mm Hg.

Q: And the “time to full recovery from light headedness” value ([2]; all the other patients)?
A: The value was ≤ 30 min.

Q: And the “patients experiencing light headedness” value ([2]; first 10 minutes following inhalation, seven of eight patients)?
A: Its value is 87.5%.

Q: What about the “adverse effects (overall)” value [2] of the same molecule?
A: The value was “minimal, reversible and well tolerated”.

Q: What about the “adverse effects (overall)” value ([2]; listed as THC) of the same molecule?
A: The value was “minimal, reversible and receded rapidly”.

Q: What about the “time to full recovery from light headedness” value ([2]; three patients) of the same molecule?
A: Its value is ≤ 15 min.

Q: And the “mean Cmax elevation” value ([3]; Ware et al. 2010, single smoke inhalation of 25±1 mg cannabis with 9.4% Δ^9-THC (2.35 mg), three times a day for 5 days)?
A: Its value is 45 ng/mL.

Q: And the “decrease in average daily pain intensity” value ([3]; Ware et al. 2010, single smoke inhalation of 25±1 mg cannabis with 9.4% Δ^9-THC, three times a day for 5 days, compared to placebo)?
A: Its value is 11.4%.

Q: What about the “reduction of neuropathic pain (plateau, ceiling effect)” value ([3]; Wilsey et al. 2008, smoking 19 mg or 34 mg total available Δ^9-THC divided to 3 doses) of the same molecule?
A: Its value is 45%.

Q: And the “analgesic response compared with the 10.3 mg dose” value ([3]; Wilsey et al. 2013, THC dose increased to 28.2 mg)?
A: The value was “equianalgesic response”.

Q: And the “reduction of pain intensity” value ([3]; Wilsey et al. 2013, 3 hours)?
A: The value was 31%.

Q: And the “reduction of pain intensity” value ([3]; Wilsey et al. 2013, 5 hours)?
A: Its value is 25%.

Q: What about the “decrease of VAS pain intensity from baseline (difference)” value ([4]; 20 minutes after inhalation, baseline 7.5±1.4, 95% CI 2.1-4.9, P=0.001) of the same molecule?
A: Its value is 3.4 points.

Q: What about the “VAS pain intensity versus baseline” value ([4]; 90 minutes post-dosing) of the same molecule?
A: Its value is “virtually identical results as at baseline”.

Q: What about the “reduction of pain intensity” value [4, 6] of the same molecule?
A: Its value is 45%.

Q: What about the “time within which the pain reduction reversed” value [4, 6] of the same molecule?
A: Its value is ≤ 90 min.

Q: And the “inter-individual variability (CV) of peak plasma THC concentration (Cmax)” value ([1]; MDI device)?
A: The value was 25.3%.

Q: What about the “increase of Cmax per mg of THC available in the cannabis used (mean)” value ([1]; pulmonary delivery with the MDI device) of the same molecule?
A: Its value is 12.3 ng/mL/mg.

Q: What about the “time of first detection in blood sample post-inhalation” value ([1]; six patients without residual plasma THC at baseline) of the same molecule?
A: Its value is 1 min.

Q: And the “increase of Cmax per mg of THC” value ([5]; Volcano vaporizer, Abrams et al. 2007, 2011)?
A: Its value is 6.1 to 9.0 ng/mL/mg.

Q: What about the “mean Cmax increase per mg Δ^9-THC” value ([5]; after the first puff of a 1.75% Δ^9-THC cigarette) of the same molecule?
A: Its value is 3.54 ng/ml per mg.

Q: And the “mean Cmax increase per mg Δ^9-THC” value ([5]; after the first puff of a 3.55% Δ^9-THC cigarette)?
A: The value was 4.28 ng/ml per mg.

Q: What about the “plasma Cmax per mg of Δ^9-THC administered” value ([5]; intravenous administration, D'Souza et al. 2004) of the same molecule?
A: Its value is 32.8 ng Δ^9-THC/ml plasma and 23.8 ng Δ^9-THC/ml plasma.

Q: What about the “inter-individual variability (CV) of Cmax” value ([5]; oral administration) of the same molecule?
A: Its value is 42-115%.

Q: What about the “inter-individual variability (CV) of Cmax” value ([5]; oromucosal route of delivery) of the same molecule?
A: Its value is 59-67%.

Q: What about the “increase of Cmax per mg of THC” value ([5]; regular smoking cigarettes, Ohlsson, Hunault, Huestis) of the same molecule?
A: The value was 0.6 to 4.6 ng/mL/mg.

Q: What about the “inter-individual variability (CV) of Cmax” value ([5]; smoking cigarettes) of the same molecule?
A: The value was 32-115%.

Q: And the “time of peak plasma concentrations” value ([5]; smoking products of cannabis)?
A: The value was 1 to 3 min.

Q: What about the bioavailability ([5]; smoking route, listed as THC) of the same molecule?
A: The bioavailability was 2-56% and 2 to 56%.

Q: And the “first onset of effects” value ([5]; smoking)?
A: Its value is “about 7 minutes”.

Q: And the “inter-individual variability (CV) of Cmax” value ([5]; vaporizer)?
A: Its value is 47-85%.
